The source of these data is patent US20240173307A1, “MODULATORS OF THE INTEGRATED STRESS PATHWAY” (Calico Life Sciences LLC, priority 2017, published 2024).

pEC50: −log10 of the molar value. Some results are limits rather than exact numbers.

For the assay, the system named is HEK293T cells carrying the ATF4 luciferase reporter. As to the kind of experiment: ATF4-Luc assay (in vitro model of vanishing white matter disease). In kind it is cell-based. Conditions: Homo sapiens, HEK-293T, 1 μg/mL tunicamycin, 7 hours. As for the experimental part: In order to test exemplary compounds of the invention in a cellular context, a stable VWMD cell line was first constructed. The ATF4 reporter was prepared by fusing the human full-length ATF4 5′-UTR (NCBI Accession No. BCO22088.2) in front of the firefly luciferase (FLuc) coding sequence lacking the initiator methionine as described in Sidrauski et al (eLife 2013). The construct was used to produce recombinant retroviruses using standard methods and the resulting viral supernatant was used to transduce HEK293T cells, which were then subsequently selected with puromycin to generate a stable cell line.
HEK293T cells carrying the ATF4 luciferase reporter were plated on polylysine coated 384-well plates (Greiner Bio-one) at 30,000 cells per well. Cells were treated the next day with 1 μg/mL tunicamycin and 200 nM of a compound of Formula (I) for 7 hours. Luminescence was measured using One Glo (Promega) as specified by the manufacturer. Cells were maintained in DMEM with L-glutamine supplemented with 10% heat-inactivated FBS (Gibco) and Antibiotic-Antimycotic solution (Gibco).
Table 2 below summarizes the EC50 data obtained using the ATF4-Luc assay for exemplary compounds of the invention.
For the molecule `O=C(COc1ccc(Cl)c(F)c1)NC12CC(C(=O)Nc3cc(CO)ccn3)(C1)C2` [Compound 313, 3-[2-(4-chloro-3-fluorophenoxy)acetamido]-N-[4-(hydroxymethyl)pyridin-2-yl]bicyclo[1.1.1]pentane-1-carboxamide], the pEC50 is 5.70 to 6.00.
The same measure for `O=C(CNC(=O)C12CCC(NC(=O)COc3ccc(Cl)c(F)c3)(CC1)C[C@@H]2O)Cc1ccccc1` [Compound 277, (2S)-4-[2-(4-chloro-3-fluorophenoxy)acetamido]-2-hydroxy-N-(2-oxo-3-phenylpropyl)bicyclo[2.2.2]octane-1-carboxamide]: over 6.60.
Take `O=C(COc1ccc(Cl)c(F)c1)NC12CCC(C(=O)NCc3ccc(OC(F)F)cn3)(CC1)CC2` [Compound 265, 4-[2-(4-chloro-3-fluorophenoxy)acetamido]-N-{[5-(difluoromethoxy)pyridin-2-yl]methyl}bicyclo[2.2.2]octane-1-carboxamide]: the pEC50 is over 6.60.
The figure for `O=C(COc1ccc(Cl)c(F)c1)NC12CCC(C(=O)NCc3ccc(C(F)(F)F)cc3)(CC1)C[C@H]2O` (single isomer, unassigned) [Compound 269] is over 6.60; for `COc1ccc(CNC(=O)C23CC(NC(=O)COc4ccc(Cl)c(F)c4)(C2)C3)nn1` [Compound 322, 3-[2-(4-chloro-3-fluorophenoxy)acetamido]-N-[(6-methoxypyridazin-3-yl)methyl]bicyclo[1.1.1]pentane-1-carboxamide] it is under 5.70.
The same measure for `O=C(COc1ccc(Cl)c(F)c1)NC12CCC(C(=O)NCc3ccc(C(F)(F)F)cn3)(CC1)CC2O` (stereo not drawn) [Compound 275, 4-[2-(4-chloro-3-fluorophenoxy)acetamido]-3-hydroxy-N-{[5-(trifluoromethyl)pyridin-2-yl]methyl}bicyclo[2.2.2]octane-1-carboxamide]: over 6.60; for `O=C(COc1ccc(Cl)c(F)c1)NC12CCC(C(=O)NCc3ccc(OC(F)F)nc3)(CC1)CC2` [Compound 262, 4-[2-(4-chloro-3-fluorophenoxy)acetamido]-N-{[6-(difluoromethoxy)pyridin-3-yl]methyl}bicyclo[2.2.2]octane-1-carboxamide]: over 6.60; for `O=C(COc1ccc(Cl)c(F)c1)NC12CCC(C(=O)Nc3ccc(OC(F)(F)F)nc3)(CC1)OC2` [Compound 341, 4-[2-(4-chloro-3-fluorophenoxy)acetamido]-N-[6-(trifluoromethoxy)pyridin-3-yl]-2-oxabicyclo[2.2.2]octane-1-carboxamide]: over 6.60.
The same measure for `CCOc1cnc(NC(=O)C23CC(NC(=O)COc4ccc(Cl)c(F)c4)(C2)C3)cn1` [Compound 307, 3-[2-(4-chloro-3-fluorophenoxy)acetamido]-N-(5-ethoxypyrazin-2-yl)bicyclo[1.1.1]pentane-1-carboxamide]: 6.30 to 6.60.
On to `O=C(COc1ccc2c(c1)OC(F)(F)O2)NC12CC(C(=O)Nc3ccc(OC(F)(F)F)cn3)(C1)C2` [Compound 294, 3-{2-[(2,2-difluoro-2H-1,3-benzodioxol-5-yl)oxy]acetamido}-N-[5-(trifluoromethoxy)pyridin-2-yl]bicyclo[1.1.1]pentane-1-carboxamide], for which the pEC50 is over 6.60.
As to `O=C(COc1ccc(Cl)c(F)c1)NC12CC(C(=O)Nc3ccc(OCC(F)(F)F)nc3)(C1)C2` [Compound 310, 3-[2-(4-chloro-3-fluorophenoxy)acetamido]-N-[6-(2,2,2-trifluoroethoxy)pyridin-3-yl]bicyclo[1.1.1]pentane-1-carboxamide], the negative logarithm of the EC50 (pEC50) was over 6.60.
The same measure for `COc1ccc(NC(=O)C23CC(NC(=O)COc4ccc(Cl)c(F)c4)(C2)C3)nc1` [Compound 303, 3-[2-(4-chloro-3-fluorophenoxy)acetamido]-N-(5-methoxypyridin-2-yl)bicyclo[1.1.1]pentane-1-carboxamide]: 6.30 to 6.60.
The figure for `Cn1c(CNC(=O)C23CCC(NC(=O)COc4ccc(Cl)c(F)c4)(CC2)CC3)nc2cc(F)ccc21` [Compound 323, 4-[2-(4-chloro-3-fluorophenoxy)acetamido]-N-[(5-fluoro-1-methyl-1H-benzimidazol-2-yl)methyl]bicyclo[2.2.2]octane-1-carboxamide] is over 6.60; for `O=C(COc1ccc(Cl)c(F)c1)NC12CCC(C(=O)NCc3ccc(C(F)(F)F)cc3)(CC1)C(O)C2` (stereo not drawn) [Compound 110, 4-[2-(4-chloro-3-fluorophenoxy)acetamido]-2-hydroxy-N-{[4-(trifluoromethyl)phenyl]methyl}bicyclo[2.2.2]octane-1-carboxamide] it is over 6.60.
The same measure for `O=C(COc1ccc(Cl)c(F)c1)NC12CCC(C(=O)NCc3ccc(C(F)(F)F)cn3)(CC1)C[C@@H]2O` (single isomer, unassigned) [Compound 272]: over 6.60; for `O=C(COc1ccc(Cl)c(F)c1)NC12CC(C(=O)Nc3cccnc3)(C1)C2` [Compound 300, 3-[2-(4-chloro-3-fluorophenoxy)acetamido]-N-(pyridin-3-yl)bicyclo[1.1.1]pentane-1-carboxamide]: over 6.60.
For `O=C(COc1ccc(Cl)c(F)c1)NC12CC(C(=O)N(CCO)Cc3ccc(Cl)c(F)c3)(C1)C2` [Compound 343, 3-[2-(4-chloro-3-fluorophenoxy)acetamido]-N-[(4-chloro-3-fluorophenyl)methyl]-N-(2-hydroxyethyl)bicyclo[1.1.1]pentane-1-carboxamide], the pEC50 is 5.70 to 6.00.
As to `Cc1cnc(CNC(=O)C23CCC(NC(=O)COc4ccc(Cl)c(F)c4)(CC2)CC3)cn1` [Compound 258, 4-[2-(4-chloro-3-fluorophenoxy)acetamido]-N-[(5-methylpyrazin-2-yl)methyl]bicyclo[2.2.2]octane-1-carboxamide], the pEC50 is 6.00 to 6.30.
For the molecule `O=C(NC12CC(C(=O)Nc3ccc(OC(F)(F)F)cn3)(C1)C2)c1ccc(OC(F)(F)F)cn1` [Compound 315, 5-(trifluoromethoxy)-N-(3-{[5-(trifluoromethoxy)pyridin-2-yl]carbamoyl}bicyclo[1.1.1]pentan-1-yl)pyridine-2-carboxamide], the negative logarithm of the EC50 (pEC50) was 6.00 to 6.30.
The same measure for `O=C(COc1ccc(Cl)c(Cl)c1)NC12CCC(C(=O)NCc3ccc(C(F)(F)F)cc3)(CC1)[C@H](O)C2` (single isomer, unassigned) [Compound 263]: over 6.60; for `O=C(COc1ccc(C(F)(F)F)nc1)NC12CC(C(=O)Nc3ccc(OC(F)(F)F)cn3)(C1)C2` [Compound 297, N-[5-(trifluoromethoxy)pyridin-2-yl]-3-(2-{[6-(trifluoromethyl)pyridin-3-yl]oxy}acetamido)bicyclo[1.1.1]pentane-1-carboxamide]: over 6.60.
As for `O=C(COc1ccc(Cl)c(F)c1)NC12CCC(C(=O)Nc3ccc(C(F)(F)F)cc3)(CC1)OC2` [Compound 337, 4-[2-(4-chloro-3-fluorophenoxy)acetamido]-N-[4-(trifluoromethyl)phenyl]-2-oxabicyclo[2.2.2]octane-1-carboxamide], the pEC50 was over 6.60.
The figure for `O=C(COc1ccc(Cl)c(F)c1)NC12CCC(C(=O)Nc3ccc(OC(F)(F)F)nc3)(CC1)CC2` [Compound 280, 4-[2-(4-chloro-3-fluorophenoxy)acetamido]-N-[6-(trifluoromethoxy)pyridin-3-yl]bicyclo[2.2.2]octane-1-carboxamide] is over 6.60; for `O=C(COc1ccc(Cl)c(F)c1)NC12CC(C(=O)Nc3ccc(OC(F)F)cn3)(C1)C2` [Compound 309, 3-[2-(4-chloro-3-fluorophenoxy)acetamido]-N-[5-(difluoromethoxy)pyridin-2-yl]bicyclo[1.1.1]pentane-1-carboxamide] it is over 6.60; for `O=C(COc1ccc(Cl)c(F)c1)NC12CCC(C(=O)Nc3ccc(OC(F)(F)F)cn3)(CC1)CC2` [Compound 279, 4-[2-(4-chloro-3-fluorophenoxy)acetamido]-N-[5-(trifluoromethoxy)pyridin-2-yl]bicyclo[2.2.2]octane-1-carboxamide] it is over 6.60.
The figure for `O=C(COc1ccc(Cl)c(F)c1)NC12CC(C(=O)Nc3cnc(C(F)F)cn3)(C1)C2` [Compound 284, 3-[2-(4-chloro-3-fluorophenoxy)acetamido]-N-[5-(difluoromethyl)pyrazin-2-yl]bicyclo[1.1.1]pentane-1-carboxamide] is over 6.60; for `O=C(COc1ccc(Cl)c(F)c1)NC12CCC(C(=O)Nc3ccc(OCC(F)(F)F)nc3)(CC1)CC2` [Compound 281, 4-[2-(4-chloro-3-fluorophenoxy)acetamido]-N-[6-(2,2,2-trifluoroethoxy)pyridin-3-yl]bicyclo[2.2.2]octane-1-carboxamide] it is under 5.70; for `O=C(COc1ccc(Cl)c(F)c1)NC12CC(C(=O)Nc3ccccc3F)(C1)C2` [Compound 314, 3-[2-(4-chloro-3-fluorophenoxy)acetamido]-N-(2-fluorophenyl)bicyclo[1.1.1]pentane-1-carboxamide] it is 6.00 to 6.30.
The same measure for `O=C(COc1ccc(Cl)c(F)c1)NC12CCC(C(=O)Nc3ccc(OC(F)F)nc3)(C1)C2` [Compound 268, 4-[2-(4-chloro-3-fluorophenoxy)acetamido]-N-[6-(difluoromethoxy)pyridin-3-yl]bicyclo[2.1.1]hexane-1-carboxamide]: 6.30 to 6.60.
For the molecule `O=C(COc1ccc(Cl)c(F)c1)NC12CCC(C(=O)NCc3nc4cc(F)c(F)cc4[nH]3)(CC1)CC2` [Compound 324, 4-[2-(4-chloro-3-fluorophenoxy)acetamido]-N-[(5,6-difluoro-1H-benzimidazol-2-yl)methyl]bicyclo[2.2.2]octane-1-carboxamide], the negative-log EC50 (pEC50) was over 6.60.
